# Tests used:
# HeLa cells [1] = assay: CCK-8 antiproliferation assay, HeLa; assay type: cell-based; conditions: Homo sapiens, 48 h
# Procedure: (§1) Human lung carcinoma cell lines A549, human cervical cancer cell lines HeLa, human prostate cancer cell lines PC3, human colorectal carcinoma cell lines HCT116, and human liver cells L02 were purchased from the Chinese Academy of Sciences Shanghai Cell Bank (Shanghai, China). HeLa, A549, PC3, HCT116, and L02 cells were cultured in DMEM Dulbecco’s Modified Eagle Medium (DMEM; Gibco Inc., Gaithersburg, MD, USA). All cultures were provided with 10% fetal bovine serum (FBS; YHSM, Beijing, China), 100 IU/mL penicillin, and 100 μg/mL streptomycin, and cells were incubated at 37 °C in an atmosphere of 5% CO2.
# (§2) Cell viability was determined using a CCK-8 kit (Apexbio, Houston, TX, USA). […] Subsequently, absorbance was assessed at 450 nm. Three duplicates were set in each group.
# (§3) All synthesized quinoxalines compounds were tested for in vitro cytotoxicity against four cancer cell lines (HeLa, PC3, A549, and HCT116). The inhibitory effects of these compounds were evaluated using the CCK-8 assay after treatment with 20 μM of each compound. […] The species of phenyl substituents have a significant effect on the activity. […] By comparison, hydrophobic substitution at the phenyl ring gave derivatives with relatively low potency (QW7–8). In addition, large substituents on the phenyl ring exerted an unfavorable influence on the potency of the compounds (QW8 and QW16).
# [2] = system: Bcl-2 and Bax in HeLa cells; assay: Western blot of Bcl-2 and Bax; assay type: cell-based, human; conditions: 24 h
# Procedure: HeLa cells were seeded in a 6-well plate overnight and treated with QW12 for 24 h. The cells were then harvested and washed with cold PBS and lysed with RIPA buffer supplemented with a protease and phosphatase inhibitor cocktail. Protein concentration was measured using a BCA protein assay kit (Boster Biological Technology Co., Ltd., Wuhan, China). Proteins were separated by 10% SDS-PAGE gel and transferred onto polyvinylidene difluoride (PVDF) membranes (Millipore Co., Billerica, MA, USA). After blocking with 5% mild in PBST for 1 h at room temperature, membranes were incubated with specific primary antibodies against STAT3 (#ET1605-45), Bcl-2 (#ET1603-11), Bax (#ET1603-34), or GAPDH (#HA721136) overnight at 4 °C. The above antibodies were purchased from HUABIO, China. Phospho-STAT3 (Tyr 705) (#9145S) and anti-rabbit IgG, HRP-linked antibody (#7074S) were purchased from Cell Signaling Technology, Inc. America. The next day, the membranes were washed with PBST three times and incubated with secondary antibodies 2 h at room temperature. Images were captured and documented with a CCD system (Tanon 5200, Biotanon, Shanghai, China).
# recombinant STAT3 = recombinant STAT3 (Homo sapiens, UniProt P40763); assay: Biolayer interferometry (BLI) assay; conditions: His-tagged STAT3 on SSA biosensors, QW12 5.2 to 333 μM, read-out: binding affinity (KD) to STAT3
# Chain of recombinant STAT3 (P40763 whole entry, species assumed): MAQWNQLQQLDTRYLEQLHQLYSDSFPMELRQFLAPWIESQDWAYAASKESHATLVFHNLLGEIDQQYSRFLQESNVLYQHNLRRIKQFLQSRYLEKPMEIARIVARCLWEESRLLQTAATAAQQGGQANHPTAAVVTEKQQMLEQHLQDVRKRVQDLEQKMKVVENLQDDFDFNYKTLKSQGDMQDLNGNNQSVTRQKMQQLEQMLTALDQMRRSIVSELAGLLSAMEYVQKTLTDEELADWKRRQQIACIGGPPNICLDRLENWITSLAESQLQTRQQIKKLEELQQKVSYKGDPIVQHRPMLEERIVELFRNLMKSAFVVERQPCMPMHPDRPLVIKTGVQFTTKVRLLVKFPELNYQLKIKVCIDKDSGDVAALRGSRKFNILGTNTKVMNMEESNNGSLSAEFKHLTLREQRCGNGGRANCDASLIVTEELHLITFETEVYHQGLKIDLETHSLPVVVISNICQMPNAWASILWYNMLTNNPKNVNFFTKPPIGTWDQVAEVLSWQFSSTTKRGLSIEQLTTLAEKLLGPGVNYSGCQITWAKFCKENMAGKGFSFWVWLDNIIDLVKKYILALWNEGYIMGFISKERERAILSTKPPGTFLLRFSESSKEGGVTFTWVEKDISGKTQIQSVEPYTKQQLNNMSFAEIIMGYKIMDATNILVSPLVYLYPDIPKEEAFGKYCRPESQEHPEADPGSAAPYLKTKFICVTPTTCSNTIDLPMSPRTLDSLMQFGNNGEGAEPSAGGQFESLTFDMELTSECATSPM
# Procedure: BLI assays were performed using the BLItz system (Sartorius). Biosensors were first equilibrated 10 min in 1X kinetic buffer (Sartorius) consisting of PBS with 0.02% Tween20 and 0.1% BSA. Subsequently, depending on the assay, STAT3 was loaded onto the corresponding biosensor at a concentration of 1.9 µg/µL, as indicated in the Sartorius biosensor datasheets, for an appropriate time interval. The concentration range for the associating protein was chosen, when possible, based on the KD value available from the literature or experimentally determined for all scenarios wherein KD values were unknown. The data recorded were analyzed by means of the BLItz software and MATLAB to extrapolate the kinetic parameters. All association and dissociation curves were fitted by a single exponential function. Each acquisition was repeated twice to confirm reproducibility.
# To confirm whether QW12 is a direct STAT3 inhibitor, a BLI (biolayer interferometry) analysis was performed. Briefly, recombinant STAT3 with a His tag was immobilized on SSA biosensors, and the dissociation constants were determined by measuring the binding to serial dilutions of QW12 at concentrations ranging from 5.2 to 333 μM (Figure 9A).
# HeLa cells [3] = assay: Cell cycle analysis, PI flow cytometry; assay type: cell-based, human; conditions: 24 h
# Procedure: For cell cycle analysis, cells were collected after treatment, washed twice with cold PBS, fixed in 70% ethanol overnight, and stained with PI ([…], Sigma, Shanghai, China), plus 0.2 mg/mL of DNase-free RNase A (Qiagen) for 1 h at 4 °C.
# HeLa cells [4] = assay: Wound healing assay; assay type: cell-based, human; conditions: after 48 h, control 55.7%
# Procedure: A total of 1 × 10^6 cells/well in the logarithmic growth phase were seeded in 6-well plates. When cell density reached 80 to 90%, a scratch was made in the monolayer in the middle of the well with a 200 μL pipette tip. The tip was kept perpendicular to the bottom of the well to obtain a straight gap. The detached cells were washed away and removed. The healing of the wound within the same scraped line was then observed and photographed at the indicated time points (0 h, 24 h, 48 h). Each experiment was repeated three times.
# A549 cells = assay: CCK-8 antiproliferation assay, A549; assay type: cell-based; conditions: Homo sapiens, 48 h
# Procedure: as §1, §2, §3
# HeLa cells [5] = assay: Annexin V-FITC/PI apoptosis assay, flow cytometry; assay type: cell-based, human; conditions: control 3.5%
# Procedure: For the Annexin V apoptosis assay, cells were collected at the end of the treatment, washed with cold PBS, and stained with the PI/Annexin V-FITC apoptosis kit (4A Biotech Co., Ltd., Beijing, China) following the manufacturer’s instructions. All flow cytometric analyses were performed at the Tianfu Science and Technology Park Molecular and Cell Platform in the West China Hospital.
# HeLa cells [6] = assay: Hoechst-33342 staining; assay type: cell-based, human; conditions: 24 h, vs control
# Procedure: HeLa cells (4 × 10^5 cells) were incubated in a 6-well plate for 12 h. The cells were then treated with QW12 at the indicated concentrations for 24 h. The cells were washed twice with PBS. The cells were then incubated with Hoechst-33342 (10 μg/mL) for 5 min at room temperature in darkness. After incubation, stained cells were observed under an inverted phase contrast microscope (OLYMPUS IX73, Tokyo, Japan).
# [7] = HeLa cells, 10, 40 μM, vs control
smiles,measurement,setting,value
"COc1cc(-c2ccc(/C=N/NC(=O)c3ccc(O)cc3)o2)c(OC)cc1-c1ccc2nccnc2c1 [QW12, (E)-N’-((5-(2,5-dimethoxy-4-(quinoxalin-6-yl)phenyl)furan-2-yl)methylene)-4-hydroxybenzohydrazide]",IC50,"HeLa cells [1]; HeLa, CCK-8, read-out: IC50 ± SD, HeLa",10.58 ± 0.1 µM
same,inhibition at 20 µM,"HeLa cells [1]; 20 μM, CCK-8, mean ± SD, read-out: Inhibition Rate (%) at 20 μM, HeLa",76.35 ± 0.11%
same,Bcl-2/Bax expression ratio,"[2]; 40 μM, control 1.00",0.66 ± 0.01
same,Bax expression,[2]; [7],increased slightly
same,Bcl-2 expression,[2]; [7],decreased significantly
same,Kd,recombinant STAT3,67.3 µM
same,HeLa cell population in the S phase,HeLa cells [3]; 10 μM,23.19%
same,HeLa cell population in the S phase,HeLa cells [3]; 40 μM,51.88%
same,percentage of cells in phases G0/G1 and G2/M,HeLa cells [3]; 10 and 40 μM,decreased significantly
same,rate of scratch closure,HeLa cells [4]; 10 μM,28.0%
same,rate of scratch closure,HeLa cells [4]; 40 μM,17.2%
same,inhibition at 20 µM,"A549 cells; 20 μM, CCK-8, mean ± SD, read-out: Inhibition Rate (%) at 20 μM, A549",50.8 ± 0.62%
same,IC50,"A549 cells; CCK-8, read-out: IC50 ± SD, A549",20.6 ± 1.22 µM
same,cell apoptosis rate,HeLa cells [5]; 10 μM,13.9%
same,cell apoptosis rate,HeLa cells [5]; 40 μM,34.7%
same,nuclear morphology (Hoechst staining),HeLa cells [6],significant apoptotic morphological characteristics were observed

# From article PMC9698340, “Discovery and SAR Study of Quinoxaline–Arylfuran Derivatives as a New Class of Antitumor Agents” (Pharmaceutics, 2022)
